PubChem BioAssay AID210 (DTP/NCI, 2004)
Inconclusive results and toxic doses are left out.

Tested on: CD2F1 mice, ip Colon 26 adenocarcinoma, median survival T/C
Assay: NCI In Vivo Anticancer Drug Screen. Data for tumor model Colon 26 Adenocarcinoma (intraperitoneal) in CD2F1 (CDF1) mice
Settings: endpoint: median survival time, higher = longer survival
Method: The antitumor activity of compounds was measured in mice bearing transplantable tumors. Survival or tumor size were measured and the results are expressed as the measurement made in the treated group (T) divided by the measurement made in the vehicle treated control group (C). The tumor model used in this assay is Colon 26 Adenocarcinoma (intraperitoneal) in CD2F1 (CDF1) mice

[1] = dose: 12.5 mg/kg/injection, schedule: Q04DX003 (ip), vehicle: saline with Tween-80
[2] = dose: 25.0 mg/kg/injection, schedule: Q04DX003 (ip), vehicle: saline with Tween-80
[3] = dose: 1.0 mg/kg/injection, schedule: Q04DX003 (ip), vehicle: saline
[4] = dose: 2.0 mg/kg/injection, schedule: Q04DX003 (ip), vehicle: saline

Structure (SMILES): CO[C@H]1C[C@@H]2CC[C@@H](C)[C@@](O)(O2)C(=O)C(=O)N2CCCC[C@H]2C(=O)O[C@H]([C@H](C)C[C@@H]2CC[C@@H](O)[C@H](OC)C2)CC(=O)[C@H](C)C=C(C)[C@@H](O)[C@@H](OC)C(=O)[C@H](C)C[C@H](C)/C=C/C=C/C=C1C
- T/C [1]: 104 % of control
- T/C [2]: 118 % of control
- T/C (dose: 50.0 mg/kg/injection, schedule: Q04DX003 (ip), vehicle: saline with Tween-80): 116 % of control
- T/C (dose: 100.0 mg/kg/injection, schedule: Q04DX003 (ip), vehicle: saline with Tween-80): 105 % of control
- T/C (dose: 200.0 mg/kg/injection, schedule: Q04DX003 (ip), vehicle: saline with Tween-80): 96 % of control

Structure (SMILES): COc1cc(C[C@H]2c3cc(OC)c(OC)cc3CCN2C)c(Oc2cc3c(cc2OC)-c2c(OC)c(OC)cc4c2[C@H](C3)N(C)CC4)cc1OC
- T/C (dose: 25.0 mg/kg/injection, schedule: Q04DX003 (ip), vehicle: saline): 89 % of control
- T/C (dose: 50.0 mg/kg/injection, schedule: Q04DX003 (ip), vehicle: saline): 95 % of control
- T/C (dose: 100.0 mg/kg/injection, schedule: Q04DX003 (ip), vehicle: saline): 90 % of control
- T/C (dose: 200.0 mg/kg/injection, schedule: Q04DX003 (ip), vehicle: saline): 93 % of control
- T/C (dose: 400.0 mg/kg/injection, schedule: Q04DX003 (ip), vehicle: saline): 95 % of control

Structure (SMILES): CC1CC2OC2/C=C\C=C\C(=O)Cc2c(Cl)c(O)cc(O)c2C(=O)O1 (configuration not stated)
- T/C (dose: 12.5 mg/kg/injection, schedule: Q04DX002 (ip), vehicle: Klucel (hydroxypropylcellulose) (HPC)): 94 % of control
- T/C (dose: 25.0 mg/kg/injection, schedule: Q04DX002 (ip), vehicle: Klucel (hydroxypropylcellulose) (HPC)): 92 % of control
- T/C (dose: 50.0 mg/kg/injection, schedule: Q04DX002 (ip), vehicle: Klucel (hydroxypropylcellulose) (HPC)): 99 % of control
- T/C (dose: 100.0 mg/kg/injection, schedule: Q04DX002 (ip), vehicle: Klucel (hydroxypropylcellulose) (HPC)): 99 % of control
- T/C (dose: 200.0 mg/kg/injection, schedule: Q04DX002 (ip), vehicle: Klucel (hydroxypropylcellulose) (HPC)): 95 % of control

Structure (SMILES): CCCCCCCC(=O)[O][Hg][CH2]C1COC([CH2][Hg][O]C(=O)CCCCCCC)CO1 (configuration not stated)
- T/C [1]: 95 % of control
- T/C [2]: 90 % of control

Structure (SMILES): CC1(C)CC23C4COC(=O)C2CCC1C3CC4=O (configuration not stated)
- T/C (dose: 36.0 mg/kg/injection, schedule: Q04DX003 (ip), vehicle: DMSO): 99 % of control
- T/C (dose: 62.5 mg/kg/injection, schedule: Q04DX002 (ip), vehicle: saline with Tween-80): 109 % of control
- T/C (dose: 72.0 mg/kg/injection, schedule: Q04DX003 (ip), vehicle: DMSO): 93 % of control
- T/C (dose: 125.0 mg/kg/injection, schedule: Q04DX002 (ip), vehicle: saline with Tween-80): 91 % of control
- T/C (dose: 144.0 mg/kg/injection, schedule: Q04DX003 (ip), vehicle: DMSO): 94 % of control

Structure (SMILES): CN(C)C(=O)c1cccc(COc2ccc(N3C(N)=NC(N)=NC3(C)C)cc2Cl)c1
- T/C (dose: 24.0 mg/kg/injection, schedule: Q06HX018 (ip), vehicle: saline): 96 % of control
- T/C (dose: 36.0 mg/kg/injection, schedule: Q06HX018 (ip), vehicle: saline): 98 % of control

Structure (SMILES): Clc1ccc(C2SC=Cc3ccccc32)cc1 (configuration not stated)
- T/C (dose: 3.12 mg/kg/injection, schedule: Q04DX002 (ip), vehicle: Klucel (hydroxypropylcellulose) (HPC)): 105 % of control
- T/C (dose: 25.0 mg/kg/injection, schedule: Q04DX003 (ip), vehicle: Klucel (hydroxypropylcellulose) (HPC)): 99 % of control
- T/C (dose: 50.0 mg/kg/injection, schedule: Q04DX003 (ip), vehicle: Klucel (hydroxypropylcellulose) (HPC)): 103 % of control
- T/C (dose: 62.5 mg/kg/injection, schedule: Q04DX002 (ip), vehicle: Klucel (hydroxypropylcellulose) (HPC)): 100 % of control
- T/C (dose: 100.0 mg/kg/injection, schedule: Q04DX003 (ip), vehicle: Klucel (hydroxypropylcellulose) (HPC)): 97 % of control
- T/C (dose: 125.0 mg/kg/injection, schedule: Q04DX002 (ip), vehicle: Klucel (hydroxypropylcellulose) (HPC)): 98 % of control
- T/C (dose: 200.0 mg/kg/injection, schedule: Q04DX003 (ip), vehicle: Klucel (hydroxypropylcellulose) (HPC)): 105 % of control
- T/C (dose: 250.0 mg/kg/injection, schedule: Q04DX002 (ip), vehicle: Klucel (hydroxypropylcellulose) (HPC)): 96 % of control
- T/C (dose: 500.0 mg/kg/injection, schedule: Q04DX002 (ip), vehicle: Klucel (hydroxypropylcellulose) (HPC)): 100 % of control

Structure (SMILES): CN(Cc1cnc2nc(N)nc(N)c2n1)c1ccc(C(=O)N[C@@H](CCC(=O)O)C(=O)O)cc1
- T/C (dose: 30.0 mg/kg/injection, schedule: Q07DX003 (ip), vehicle: saline): 105 % of control
- T/C (dose: 44.0 mg/kg/injection, schedule: Q07DX003 (ip), vehicle: saline): 88 % of control
- T/C (dose: 44.0 mg/kg/injection, schedule: Q07DX003 (ip), vehicle: sodium bicarbonate): 121 % of control
- T/C (dose: 63.0 mg/kg/injection, schedule: Q07DX003 (ip), vehicle: saline): 93 % of control

Structure (SMILES): COc1ccc(CC2C(=O)NC(C)C(=O)N(C)C3C(=O)N(C)C(Cc4ccc(O)c(c4)Oc4ccc(cc4)C3O)C(=O)NC(C)C(=O)NC(C)C(=O)N2C)cc1 (configuration not stated)
- T/C (dose: 0.5 mg/kg/injection, schedule: Q04DX003 (ip), vehicle: saline): 98 % of control
- T/C [3]: 101 % of control
- T/C (dose: 1.08 mg/kg/injection, schedule: Q04DX003 (ip), vehicle: other): 91 % of control
- T/C (dose: 1.8 mg/kg/injection, schedule: Q04DX003 (ip), vehicle: other): 113 % of control
- T/C [4]: 92 % of control
- T/C (dose: 3.0 mg/kg/injection, schedule: Q04DX003 (ip), vehicle: other): 120 % of control
- T/C (dose: 5.0 mg/kg/injection, schedule: Q04DX003 (ip), vehicle: other): 114 % of control

Structure (SMILES): COc1cccc2c1C(=O)c1c(O)c3c(c(O)c1C2=O)C[C@@](O)(C(=O)CO)C[C@@H]3OC1CC(OC(C)=O)C(OC(C)=O)C(C)O1 (some centres not stated)
- T/C (dose: 58.0 mg/kg/injection, schedule: Q07DX002 (sc), vehicle: distilled water + Tween-80): 109 % of control
- T/C (dose: 101.0 mg/kg/injection, schedule: Q07DX002 (sc), vehicle: distilled water + Tween-80): 120 % of control
- T/C (dose: 300.0 mg/kg/injection, schedule: Q07DX002 (sc), vehicle: distilled water + Tween-80): 150 % of control

Structure (SMILES): CC(=O)OC1C2(CC3N4C(=O)C5(CO)SSC4(CC31O)C(=O)N5C)OC(C)C(C)(C)C2=O (configuration not stated)
- T/C (dose: 1.25 mg/kg/injection, schedule: Q04DX002 (ip), vehicle: saline): 97 % of control
- T/C (dose: 2.5 mg/kg/injection, schedule: Q04DX002 (ip), vehicle: saline): 108 % of control
- T/C (dose: 5.0 mg/kg/injection, schedule: Q04DX002 (ip), vehicle: saline): 87 % of control

Structure (SMILES): OCCN1CCN(CC/C=C2/c3ccccc3Sc3ccc(C(F)(F)F)cc32)CC1
- T/C (dose: 3.13 mg/kg/injection, schedule: Q04DX003 (ip), vehicle: saline): 98 % of control
- T/C (dose: 6.25 mg/kg/injection, schedule: Q04DX003 (ip), vehicle: saline): 91 % of control
- T/C (dose: 12.5 mg/kg/injection, schedule: Q04DX003 (ip), vehicle: saline): 91 % of control

Structure (SMILES): N[C@H](C(=O)O)[C@@H]1CC(Cl)=NO1
- T/C [3]: 102 % of control
- T/C [4]: 105 % of control
- T/C (dose: 4.0 mg/kg/injection, schedule: Q04DX003 (ip), vehicle: saline): 107 % of control
- T/C (dose: 8.0 mg/kg/injection, schedule: Q04DX003 (ip), vehicle: saline): 103 % of control
- T/C (dose: 16.0 mg/kg/injection, schedule: Q04DX003 (ip), vehicle: saline): 110 % of control
- T/C (dose: 32.0 mg/kg/injection, schedule: Q04DX003 (ip), vehicle: saline): 107 % of control

Structure (SMILES): CCC(=O)O[C@H]1CC[C@H]2[C@@H]3CCC4=CC(=O)CC[C@]4(C)[C@H]3CC[C@]12C
- T/C (dose: 80.0 mg/kg/injection, schedule: Q04DX003 (ip), vehicle: saline): 87 % of control
- T/C (dose: 160.0 mg/kg/injection, schedule: Q04DX003 (ip), vehicle: saline): 96 % of control
- T/C (dose: 640.0 mg/kg/injection, schedule: Q04DX003 (ip), vehicle: saline): 86 % of control
